US20230227492A1 (priority 2020, published 2023)
Like-named read-outs stand apart in the source and are kept apart here.

Legend:
[1] = target: T1, full-length, untagged, human estrogen receptors (ERα) (Homo sapiens, UniProt P03372); assay: ERα fluorescence polarization (FP) binding assay
T1 construct: insect cell-expressed, full-length, untagged, human estrogen receptors; purchased Life Technologies (Carlsbad, Calif.); host or cells: insect cells
Procedure: (§1) Receptor Binding Assay Information—In certain of the following examples, hormone receptor binding assays were used to determine the receptor binding activities of monomeric compound embodiments to androgen (AR), progesterone (PR), estrogen alpha (ERα) or glucocorticoid (GR) receptors. For AR, PR or ERα, the respective receptors are added to novel, tight-binding, selective ligands tagged with a fluorescent molecule, to form a receptor-ligand complex with a high polarization value. This complex is then added to individual monomeric compound embodiments that are contained in well plates. If the monomeric compound binds to the respective receptors, it displaces the fluorescent ligand from the complex, resulting in a low polarization value. In such embodiments, the monomeric compound is characterized as a competitor. […] In such embodiments, the monomeric compound is characterized as a noncompetitor. The shift in polarization value in the presence of the monomeric compound is used to determine the relative affinity of monomeric compound for the receptor.
(§2) For the androgen, progesterone, and estrogen receptor binding assays described herein, the preparation of reagents and test procedures is performed according to the manufacturer's instructions (Life Technologies, Carlsbad, Calif.). The plates are covered to protect the reagents from light and incubated at 20-25° C. for 4-8 hrs.
For ERα data, the ERα fluorescence polarization (FP) assay was used, which provides a sensitive and efficient method for high-throughput screening of potential ER ligands. The kit uses insect cell-expressed, full-length, untagged, human estrogen receptors and a tight-binding, fluorescent estrogen ligand (Fluormone™ ES2) in a homogenous mix-and-read assay format. ERα was added to a fluorescent estrogen ligand to form an ERα/Fluormone™ ES2 complex. This complex was then added to individual compound embodiments contained in 96-well plates. […] The change in polarization value in the presence of a compound embodiment was used to determine relative affinity of a compound embodiment for ERα.

[2] = target: T2, human PR ligand-binding domain tagged with GST [PR-LBD (GST)] (Homo sapiens, UniProt P06401); assay: PR fluorescence polarization (FP) binding assay; conditions: Fluormone PL Green
T2 construct: purchased Life Technologies (Carlsbad, Calif.)
T2 sequence (P06401 679-913 limits assumed): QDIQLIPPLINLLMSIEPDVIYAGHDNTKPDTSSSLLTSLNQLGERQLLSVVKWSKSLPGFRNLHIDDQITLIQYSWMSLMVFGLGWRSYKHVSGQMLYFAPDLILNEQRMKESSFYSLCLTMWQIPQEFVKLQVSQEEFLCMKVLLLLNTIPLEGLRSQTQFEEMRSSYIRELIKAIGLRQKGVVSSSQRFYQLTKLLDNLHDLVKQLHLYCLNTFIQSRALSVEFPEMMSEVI
Procedure: as §1
as §2, with “hrs. The fluorescence polarization of the samples is measured with 485 nm excitation and 530 nm emission interference filters.” for “hrs.”
In this example, PR binding activity was assessed using the PR fluorescence polarization (FP) assay, which provides a sensitive and efficient method for high-throughput screening of potential PR ligands. The kit uses human PR ligand-binding domain tagged with GST [PR-LBD (GST)], and a tight-binding, selective fluorescent progesterone ligand (Fluormone™ PL Green) in a homogenous mix-and-read assay format. Progesterone receptor [PR-LBD (GST)] was added to a fluorescent progesterone ligand (Fluormone™ PL Green) to form a PR-LBD (GST)/Fluormone™ PL Green complex resulting in a high polarization value. This complex was then added to individual compound embodiments in 96-well plates. Competitors displaced the fluorescent Fluormone™ PL Green ligand from the PR-LBD (GST)/Fluormone™ PL Green complex, causing the fluorescent ligand to tumble rapidly during its fluorescence lifetime, resulting in a low polarization value. […] The shift in polarization value in the presence of compound embodiments was used to determine relative affinity of compound embodiments for PR-LBD (GST). The fluorescence polarization of the samples was measured with 485 nm excitation and 530 nm emission interference filters. Results for monomeric compound embodiments wherein the R^2 groups is not present (such as to test compound activity after R^2 cleavage) are provided in Table 4.

[3] = target: T3, recombinant human aromatase (Homo sapiens, UniProt P11511); assay: Aromatization by recombinant human aromatase (CYP19+P450 reductase Supersomes); conditions: 10 μM, 37° C.
T3 sequence (P11511 1-503): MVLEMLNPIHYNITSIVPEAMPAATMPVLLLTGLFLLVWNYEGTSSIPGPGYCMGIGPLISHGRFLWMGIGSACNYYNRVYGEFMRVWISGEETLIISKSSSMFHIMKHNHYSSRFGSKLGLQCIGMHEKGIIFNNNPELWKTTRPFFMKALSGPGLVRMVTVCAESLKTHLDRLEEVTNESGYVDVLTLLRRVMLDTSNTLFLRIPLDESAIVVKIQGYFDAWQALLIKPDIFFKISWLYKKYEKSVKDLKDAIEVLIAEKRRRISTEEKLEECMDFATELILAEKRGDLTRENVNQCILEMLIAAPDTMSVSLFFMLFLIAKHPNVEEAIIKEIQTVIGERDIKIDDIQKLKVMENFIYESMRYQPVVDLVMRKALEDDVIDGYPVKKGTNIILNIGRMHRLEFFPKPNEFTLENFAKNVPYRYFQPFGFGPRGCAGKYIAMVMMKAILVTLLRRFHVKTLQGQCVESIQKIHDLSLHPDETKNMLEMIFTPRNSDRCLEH

[4] = Liver S9 Fraction Stability Assay
castrated weanling rats = conditions: rat, in vivo
[5] = human liver S9, W/O NADPH, 1 μM
[6] = human liver S9, W/O NADPH, 10 μM
[7] = human liver S9, With NADPH, 1 μM
[8] = human liver S9, With NADPH, 10 μM

T1 sequence (P03372 whole entry): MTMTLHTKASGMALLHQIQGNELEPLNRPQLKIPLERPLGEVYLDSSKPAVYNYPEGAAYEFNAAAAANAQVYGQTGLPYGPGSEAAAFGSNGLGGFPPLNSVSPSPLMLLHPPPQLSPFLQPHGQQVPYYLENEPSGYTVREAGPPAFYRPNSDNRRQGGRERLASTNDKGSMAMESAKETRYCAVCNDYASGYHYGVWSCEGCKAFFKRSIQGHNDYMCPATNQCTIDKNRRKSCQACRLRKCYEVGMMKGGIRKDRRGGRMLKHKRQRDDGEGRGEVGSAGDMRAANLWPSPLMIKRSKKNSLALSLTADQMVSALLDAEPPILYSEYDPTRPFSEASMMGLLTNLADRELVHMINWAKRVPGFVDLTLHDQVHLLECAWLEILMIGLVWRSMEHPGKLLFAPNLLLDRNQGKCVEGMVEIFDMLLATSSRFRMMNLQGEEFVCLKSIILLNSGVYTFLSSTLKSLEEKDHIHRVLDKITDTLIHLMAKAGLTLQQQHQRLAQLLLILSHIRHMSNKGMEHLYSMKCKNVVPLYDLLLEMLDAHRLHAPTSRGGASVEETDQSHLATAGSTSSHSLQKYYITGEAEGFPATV

Compound	% remaining at 60 min [3]	% parent molecule remaining after 2 hours at 37° C. [4, 5]	% parent molecule remaining after 2 hours at 37° C. [4, 6]	% parent molecule remaining after 2 hours at 37° C. [4, 7]	% parent molecule remaining after 2 hours at 37° C. [4, 8]	other results
CC12CCC(=O)C=C1CC(c1ccccc1)C1C2CCC2(C)C(O)CCC12 (stereo not drawn) [CDB-4920, 7α-Phenyl Testosterone]	63.6%					IC50 [1]: 13500 nM; IC50 ([2]; IC50 (nM) PR binding): 463 nM
C#C[C@]1(OC(=O)OC(C)(C)C)CCC2C3CCC4=CC(=O)CCC4C3CC[C@@]21CC (some centres unmarked) [CDB-4889]		100≤ %	100≤ %	12%	56%	
CC1CC2=CC(=O)CCC2(C)C2CCC3(C)C(O)CCC3C12 (stereo not drawn) [CDB-4911, 7β-methyl testosterone]	3.4%					IC50 ([2]; read-out: IC50 (nM) PR binding): 415 nM; % remaining at 15 min [3]: 62.3%; % remaining at 30 min [3]: 33.5%
C[C@]12CCC(=O)C=C1CCC1C2CC[C@@]2(C)C1CC[C@@H]2OC(=O)CCC(=O)O[C@H]1CCC2C3CCC4=CC(=O)CC[C@]4(C)C3CC[C@@]21C (some centres unmarked) [CDB-4877]						AUC (Levator ani muscle) (castrated weanling rats): 2173 mg*week; AUC (Ventral Prostate) (castrated weanling rats): 524.4 mg*week; duration of ventral prostate weight increase (androgenic effects) (castrated weanling rats): sustained until Day 99 (Week 14); ventral prostate gland weights relative to vehicle (castrated weanling rats): increased
CC12CCC(=O)C=C1CC(c1ccccc1)C1C2CCC2(C)C(O)CCC12 (stereo not drawn) [CDB-4921, 7β-Phenyl Testosterone]	62.5%					IC50 ([2]; read-out: IC50 (nM) PR binding): 787 nM
CCC1CC2=CC(=O)CCC2(C)C2CCC3(C)C(O)CCC3C12 (stereo not drawn) [CDB-4924, 7β-ethyl testosterone]	0.3%					IC50 ([2]; read-out: IC50 (nM) PR binding): 842 nM; % remaining at 15 min [3]: 58.2%; % remaining at 30 min [3]: 25.4%
DMA oleate [CDB-4893]		60%	55%	54%	51%	
DMA linolate [CDB-4895]		51%	62%	55%	60%	
7α-t-Butyl Testosterone [CDB-4919]	92.0%					IC50 ([1]; fluorescence polarization, Fluormone ES2, read-out: IC50 (nM) ERα): 10400 nM; IC50 ([2]; read-out: IC50 (nM) PR binding): 1400 nM
CC[C@@H]1CC2=CC(=O)CC[C@]2(C)C2CC[C@@]3(C)C(CC[C@@H]3O)C21 (stereo partly drawn) [CDB-4918, 7α-ethyl testosterone]	0.1%					IC50 [1]: 10500 nM; IC50 ([2]; IC50 (nM) PR binding): 672 nM; % remaining at 15 min [3]: 33.0%; % remaining at 30 min [3]: 0.2%
C[C@@H]1CC2=CC(=O)CC[C@@H]2[C@@H]2[C@@H]1[C@@H]1CC[C@H](O)[C@@]1(C)C[C@@H]2C [CDB-1321, dimethandrolone, reference compound]	85.3%					
CCCCCCCCCCCCOC(=O)O[C@H]1CCC2C3CCC4=CC(=O)CC[C@]4(C)C3CC[C@@]21C (some centres unmarked) [CDB-4883, testosterone dodecylcarbonate]		74%	84%	64%	85%	
7-α-methylnortestosterone dodecylcarbonate [CDB-4884]		89%	75%	75%	82%	
C[C@@H]1CC2=CC(=O)CCC2C2C1C1CC[C@H](OC(=O)CCC(=O)O[C@H]3CCC4C5C(C6CCC(=O)C=C6C[C@H]5C)[C@@H](C)C[C@@]43C)[C@@]1(C)C[C@@H]2C (some centres unmarked) [CDB-4866]						AUC (Ventral Prostate) (castrated weanling rats): 1464 mg*week; duration of levator ani muscle weight increase (anabolic effects) (castrated weanling rats): sustained until Day 99 (Week 14); duration of ventral prostate weight increase (androgenic effects) (castrated weanling rats): sustained until Day 99 (Week 14); ventral prostate gland weights relative to vehicle (castrated weanling rats): increased
C[C@@H]1CC2=CC(=O)CC[C@@H]2C2C1C1CC[C@H](OC(=O)CCNC(=O)CCC(=O)O[C@H]3CCC4C5C([C@@H](C)C[C@@]43C)[C@H]3CCC(=O)C=C3C[C@H]5C)[C@@]1(C)C[C@@H]2C (some centres unmarked) [CDB-4886]						duration of levator ani muscle weight increase (anabolic effects) (castrated weanling rats): sustained until Day 99 (Week 14)
C#C[C@]1(OC(=O)CCCCCCCCCCC)CCC2C3CCC4=CC(=O)CCC4C3CC[C@@]21CC (some centres unmarked) [CDB-4880]		78%	86%	54%	76%	
CCCCCCCCCCCCOC(=O)O[C@H]1CCC2C3CCC4=CC(=O)CCC4=C3[C@@H](C)C[C@@]21C (some centres unmarked) [CDB-4892]		88%	77%	75%	82%	
